Reference: US7691844B2, “Nonpeptide substituted spirobenzoazepines as vasopressin antagonists” (Ortho-McNeil Pharmaceutical, Inc., priority 2000, dated 2010)
One block for each compound: values may come before it.

What was measured:
V1a = V1a (Homo sapiens, UniProt P37288); assay: In-vitro receptor binding assay (3H-arginine-8-vasopressin), V1a; details: for inhibition at 0.1 µM: read-out: Receptor Binding V1a (% Inh. @ concentration in μM)
Procedure: (§1) (A) In-Vitro Binding Assay […] The reaction plates are allowed to sit at room temperature for one hour. The samples are filtered through Unifilter GF/C plates (presoaked in 0.3 polyethyleneimine). The plates are washed 5 times with cold physiological saline containing 0.05% Tween 20. After drying, the bottom of the filter plates are sealed and 0.025 ml of Microscint-20 is added to each filter. The top of the plate is sealed, and the plate is counted. Non-specific binding is determined by the addition of 1.25 μM […]-vasopressin in those wells. % Inh. is calculated as follows: […]

human V2 receptor = human V2 receptor (Homo sapiens, UniProt P30518); assay: In-vitro receptor binding assay (3H-arginine-8-vasopressin), V2
human V2 receptor, sequence (P30518 whole entry): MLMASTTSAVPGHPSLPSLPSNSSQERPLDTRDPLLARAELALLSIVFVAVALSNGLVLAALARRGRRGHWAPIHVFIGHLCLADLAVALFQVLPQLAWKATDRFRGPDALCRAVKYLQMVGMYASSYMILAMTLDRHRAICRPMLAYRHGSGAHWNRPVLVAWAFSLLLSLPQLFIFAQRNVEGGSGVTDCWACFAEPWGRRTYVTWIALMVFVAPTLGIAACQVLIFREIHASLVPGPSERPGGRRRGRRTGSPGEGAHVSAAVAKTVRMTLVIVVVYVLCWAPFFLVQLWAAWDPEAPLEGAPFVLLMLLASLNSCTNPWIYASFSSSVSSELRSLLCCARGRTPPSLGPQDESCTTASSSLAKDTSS
Procedure: as §1

[1] = @ 10 μM, read-out: Receptor Binding V2 (% Inh. @ concentration in μM)
[2] = read-out: Receptor Binding V2 (% Inh. @ concentration in μM)
[3] = @ 1 μM, read-out: Receptor Binding V2 (% Inh. @ concentration in μM)
[4] = @ 0.1 μM, read-out: Receptor Binding V2 (% Inh. @ concentration in μM)

V1a, sequence (P37288 whole entry): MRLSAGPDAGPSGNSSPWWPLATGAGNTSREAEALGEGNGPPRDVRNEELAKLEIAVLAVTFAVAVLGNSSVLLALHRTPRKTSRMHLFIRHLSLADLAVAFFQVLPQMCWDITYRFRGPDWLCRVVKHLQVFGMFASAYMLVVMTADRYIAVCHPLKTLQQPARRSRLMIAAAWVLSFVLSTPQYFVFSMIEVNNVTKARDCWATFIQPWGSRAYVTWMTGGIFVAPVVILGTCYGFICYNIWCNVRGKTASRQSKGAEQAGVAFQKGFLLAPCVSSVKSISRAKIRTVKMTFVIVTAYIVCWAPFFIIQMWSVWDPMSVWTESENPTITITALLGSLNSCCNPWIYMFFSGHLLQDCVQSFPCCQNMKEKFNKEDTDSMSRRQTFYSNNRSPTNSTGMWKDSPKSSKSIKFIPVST

Structure (SMILES): O=C(Nc1ccc(C(=O)N2CCC3(C=CCCC3)Cc3ccccc32)cc1)c1ccc(Cl)cc1Cl (stereo not drawn) [Compound 103]
IC50 (V1a): 0.016 µM | IC50 (human V2 receptor): 0.274 µM

Structure (SMILES): Cc1ccc(F)cc1C(=O)Nc1ccc(C(=O)C2Cc3ccccc3CC3(C=CCCC3)C2)cc1 (stereo not drawn) [Compound 131]
IC50 (V1a): 0.1 µM | Receptor Binding V2 (% Inh. @ concentration in μM) (human V2 receptor; @ 0.1 μM): 3% @ 0.1

Structure (SMILES): CCCCOc1ccc(C(=O)N2CCC3(C=CCCC3)Cc3cc(Cl)c(Cl)cc32)cc1 (stereo not drawn) [Compound 73]
IC50 (V1a): 0.09 µM | Receptor Binding V2 (% Inh. @ concentration in μM) (human V2 receptor; @ 1 μM): 10% @ 1

Structure (SMILES): Cc1ncccc1C(=O)Nc1ccc(C(=O)N2CCC3(C=CCCC3)Cc3ccccc32)cc1 (stereo not drawn) [Compound 105]
IC50 (V1a): 0.035 µM | IC50 (human V2 receptor): 1 µM

Structure (SMILES): O=C(Nc1ccc(C(=O)N2CCC3(CCCCC3O)Cc3ccccc32)cc1)c1ccccc1-c1ccccc1 (stereo not drawn) [Compound 32]
IC50 (V1a): 0.061 µM | IC50 (human V2 receptor): 0.028 µM

Structure (SMILES): CC(C)CCN1CCC(Oc2ccc(C(=O)N3CCC4(C=CCCC4)Cc4ccccc43)cc2F)CC1 (stereo not drawn) [Compound 173]
inhibition at 0.1 µM (V1a): 0% | inhibition at 1 µM (human V2 receptor; [3]): 0%

Structure (SMILES): C[S+]([O-])c1ccc(C(=O)N2CCC3(C=CCCC3)Cc3ccccc32)cc1 (stereo not drawn) [Compound 94]
IC50 (V1a): 0.02 µM | inhibition at 1 µM (human V2 receptor; [3]): 10%

Structure (SMILES): Cc1ccc(-c2ccccc2C(=O)Nc2ccc(C(=O)N3CCC4(C=CCCC4)Cc4ccccc43)cc2)cc1 (stereo not drawn) [Compound 114]
IC50 (V1a): 0.09 µM | IC50 (human V2 receptor): 0.095 µM

Structure (SMILES): O=C(Nc1ccc(C(=O)N2Cc3ccccc3CC3(C=CCCC3)C2)cc1)c1ccccc1F (stereo not drawn) [Compound 128, 4-(2-Fluorobenzoyl-4-aminobenzoyl)-3-aza-[6,5]-spiro-[5,6]-benzododec-2′-ene]
IC50 (V1a): 0.042 µM | inhibition at 0.1 µM (human V2 receptor; [4]): 33%

Structure (SMILES): CCCCCCCOc1ccc(C(=O)N2CCC3(C=CCCC3)Cc3ccccc32)cc1 (stereo not drawn) [Compound 76]
IC50 (V1a): 1 µM | inhibition at 1 µM (human V2 receptor; [3]): 0%

Structure (SMILES): CC(C)COc1ccc(C(=O)N2CCC3(C=CCCC3)Cc3ccccc32)cc1 (stereo not drawn) [Compound 86]
IC50 (V1a): 0.065 µM | inhibition at 1 µM (human V2 receptor; [3]): 10%

Structure (SMILES): O=C(c1ccccc1-c1ccccc1)N1CCC2(C=CCCC2)Cc2ccccc21 (stereo not drawn) [Compound 64]
Receptor Binding V1a (% Inh. @ concentration in μM) (V1a; @ 1 μM): 1% @ 1 | Receptor Binding V2 (% Inh. @ concentration in μM) (human V2 receptor; @ 1 μM): 12% @ 1

Structure (SMILES): COCCN1CCN(CC2=CC3(CC2)CCN(C(=O)c2ccc(NC(=O)c4cc(F)ccc4C)cc2Cl)c2ccccc2C3)CC1 (stereo not drawn) [Compound 140]
inhibition at 0.1 µM (V1a): 41% | inhibition at 0.1 µM (human V2 receptor; [4]): 65%

Structure (SMILES): COc1cc(NC(=O)c2cc(F)ccc2C)ccc1C(=O)N1CCC2(C=C(C=O)CC2)Cc2ccccc21 (stereo not drawn) [Compound 170]
IC50 (V1a): 0.055 µM | IC50 (human V2 receptor): 0.21 µM

Structure (SMILES): NCc1ccc(C(=O)N2CCC3(C=CCCC3)Cc3ccccc32)cc1 (stereo not drawn) [Compound 42]
Receptor Binding V1a (% Inh. @ concentration in μM) (V1a; @ 10 μM): 0% @ 10 | Receptor Binding V2 (% Inh. @ concentration in μM) (human V2 receptor; @ 10 μM): 24% @ 10

Structure (SMILES): COC(=O)C1=CC2(CC1)CCN(C(=O)c1ccc(NC(=O)c3ccccc3F)cc1)c1ccccc1C2 (stereo not drawn) [Compound 133]
IC50 (V1a): 0.015 µM | inhibition at 0.1 µM (human V2 receptor; [4]): 23%

Structure (SMILES): Cc1ccccc1C(=O)Nc1ccc(C(=O)N2CCC3(CCCCC3)Cc3ccccc32)cc1 [Compound 28]
IC50 (V1a): 0.25 µM | Receptor Binding V2 (% Inh. @ concentration in μM) (human V2 receptor; @ 10 μM): 1% @ 10

Structure (SMILES): Nc1ccc(C(=O)N2CCC3(CCCCC3)Cc3ccccc32)cc1 [Compound 25]
IC50 (V1a): 10 µM | inhibition at 10 µM (human V2 receptor; [1]): 7%

Structure (SMILES): Cc1ccc(F)cc1C(=O)Nc1ccc(C(=O)N2CCC3(C=C(C(=O)NCCCN4CCOCC4)CC3)Cc3ccccc32)cc1 (stereo not drawn) [Compound 158]
IC50 (V1a): 0.016 µM | IC50 (human V2 receptor): 0.039 µM

Structure (SMILES): Cc1ccc(F)cc1C(=O)Nc1ccc(C(=O)N2CCC3(C=C(C(=O)NCCN(C)C)CC3)Cc3ccccc32)c(Cl)c1 (stereo not drawn) [Compound 136]
inhibition at 0.1 µM (V1a): 60% | IC50 (human V2 receptor): 0.052 µM

Structure (SMILES): CC(C)Nc1ccc(C(=O)N2CCC3(C=CCCC3)Cc3ccccc32)cc1 (stereo not drawn) [Compound 79]
IC50 (V1a): 0.19 µM | inhibition at 1 µM (human V2 receptor; [3]): 19%

The remaining lines, values ahead:

IC50 (V1a): 4.3 µM | inhibition at 10 µM (human V2 receptor; [1]): 0%
Structure (SMILES): O=C(c1cccc(C(F)(F)F)c1)N1CCC2(C=CCCC2)Cc2ccccc21 (stereo not drawn) [Compound 56]

IC50 (V1a): 0.06 µM | inhibition at 0.225 µM (human V2 receptor; @ 0.225 μM, read-out: Receptor Binding V2 (% Inh. @ concentration in μM)): 19%
Structure (SMILES): COc1cc(C(=O)N2CCC3(C=CCCC3)Cc3ccccc32)ccc1-n1ccc(C=O)c1 (stereo not drawn) [Compound 167, 4-(3-Methoxy-4-(pyrrol-1-yl-3-carboxaldehyde)benzoyl)-4-aza-[6,5]-spiro-[5,6]-benzododec-2′-ene]

IC50 (V1a): 0.069 µM | inhibition at 0.25 µM (human V2 receptor; [2]): 42%
Structure (SMILES): CCOC(=O)C1=CC2(CC1)CCN(C(=O)c1ccc(NC(=O)c3ccccc3C)cc1)c1ccccc1C2 (stereo not drawn) [Compound 162]

IC50 (V1a): 0.062 µM | IC50 (human V2 receptor): 0.08 µM
Structure (SMILES): Cc1ccccc1C(=O)Nc1ccc(C(=O)N2CCC3(C=CCCC3)Cc3ccccc32)c(Cl)c1 (stereo not drawn) [Compound 112]

IC50 (V1a): 1.1 µM | Receptor Binding V2 (% Inh. @ concentration in μM) (human V2 receptor; @ 1 μM): 0% @ 1
Structure (SMILES): CN(C)CCNC(=O)C1=CC2(CC1)CCN(C(=O)c1ccc(N)cc1)c1ccccc1C2 (stereo not drawn) [Compound 193]

IC50 (V1a): 5.4 µM | inhibition at 1 µM (human V2 receptor; [3]): 0%
Structure (SMILES): CN(C)CCNC(=O)C1=C[C@@]2(CC1)CCN(C(=O)c1ccc(N)cc1)c1ccccc1C2 [Compound 192]

IC50 (V1a): 0.014 µM | IC50 (human V2 receptor): 0.3 µM
Structure (SMILES): O=C(Nc1ccc(C(=O)N2CCC3(C=CCCC3)Cc3ccccc32)cc1)c1ccccc1F (single isomer, unassigned) [Compound 109]

IC50 (V1a): 0.006 µM | inhibition at 0.1 µM (human V2 receptor; [4]): 0%
Structure (SMILES): COc1cc(C(=O)N2CC[C@]3(C=C(C(=O)NCCN(C)C)CC3)Cc3ccccc32)ccc1-n1ccc(CO)c1 [Compound 197]

IC50 (V1a): 0.3 µM | inhibition at 1 µM (human V2 receptor; [3]): 18%
Structure (SMILES): COc1cc(-n2ccc(C=O)c2)ccc1C(=O)N1CCC2(C=C(C(=O)NCCN(C)C)CC2)Cc2ccccc21 (stereo not drawn) [Compound 195]

IC50 (V1a): 0.01 µM | IC50 (human V2 receptor): 0.072 µM
Structure (SMILES): Cc1ccc(F)cc1C(=O)Nc1ccc(C(=O)N2CCC3(C=C(C(=O)NCCN4CCCC4)CC3)Cc3ccccc32)cc1 (stereo not drawn) [Compound 161]

Receptor Binding V1a (% Inh. @ concentration in μM) (V1a; @ 1 μM): 5% @ 1 | Receptor Binding V2 (% Inh. @ concentration in μM) (human V2 receptor; @ 1 μM): 4% @ 1
Structure (SMILES): O=C(Nc1ccc(F)cc1)N1CCC2(C=CCCC2)Cc2ccccc21 (stereo not drawn) [Compound 62]

IC50 (V1a): 5.6 µM | inhibition at 10 µM (human V2 receptor; [1]): 33%
Structure (SMILES): O=C(c1cccc(Br)c1)N1CCC2(C=CCCC2)Cc2ccccc21 (stereo not drawn) [Compound 51]

IC50 (V1a): 0.13 µM | inhibition at 1 µM (human V2 receptor; [3]): 2%
Structure (SMILES): O=C(c1ccc(-n2cccn2)c(-n2cccn2)c1)N1CCC2(C=CCCC2)Cc2ccccc21 (stereo not drawn) [Compound 155]

IC50 (V1a): 0.008 µM | inhibition at 0.1 µM (human V2 receptor; [4]): 9%
Structure (SMILES): O=CC1=C[C@@]2(CC1)CCN(C(=O)c1ccc(NC(=O)c3ccccc3F)cc1Cl)c1ccccc1C2 [Compound 144]

IC50 (V1a): 0.042 µM | inhibition at 0.25 µM (human V2 receptor; [2]): 25%
Structure (SMILES): COc1cc(-n2ccc(CO)c2)ccc1C(=O)N1CCC2(C=CCCC2)Cc2ccccc21 (stereo not drawn) [Compound 165]

inhibition at 0.1 µM (V1a): 44% | inhibition at 0.1 µM (human V2 receptor; [4]): 0%
Structure (SMILES): CN(C)CCNC(=O)C1=CC2(CC1)CCN(C(=O)c1ccc(-n3ccc(C=O)c3)cc1)c1ccccc1C2 (stereo not drawn) [Compound 201]

IC50 (V1a): 0.084 µM | inhibition at 1 µM (human V2 receptor; [3]): 13%
Structure (SMILES): O=Cc1ccn(-c2ccc(C(=O)N3CCC4(C=CCCC4)Cc4ccccc43)cc2)c1 (stereo not drawn) [Compound 152]

IC50 (V1a): 0.11 µM | IC50 (human V2 receptor): 10 µM
Structure (SMILES): CN(C)c1ccc(C(=O)N2CCC3(C=CCCC3)Cc3ccccc32)cc1 (stereo not drawn) [Compound 45]

IC50 (V1a): 1.1 µM | IC50 (human V2 receptor): 10 µM
Structure (SMILES): O=C(c1ccc(Cl)cc1)N1CCC2(C=CCCC2)Cc2ccccc21 (stereo not drawn) [Compound 39]

IC50 (V1a): 0.53 µM | Receptor Binding V2 (% Inh. @ concentration in μM) (human V2 receptor; @ 10 μM): 28% @ 10
Structure (SMILES): N#Cc1cccc(C(=O)N2CCC3(C=CCCC3)Cc3ccccc32)c1 (stereo not drawn) [Compound 52]

inhibition at 0.1 µM (V1a): 4% | inhibition at 1 µM (human V2 receptor; [3]): 0%
Structure (SMILES): COC(=O)CN1CCC(Oc2ccc(C(=O)N3CCC4(C=CCCC4)Cc4ccccc43)cc2F)CC1 (stereo not drawn) [Compound 169]
